The target in data set [1] is T1, GST-ΔPH-Akt1 (Homo sapiens, UniProt P31749).
T1 construct: named GST-deltaPH-Akt1; 107-480aa; cloned in the pAcGl vector; GST (N); made in house; host or cells: SF9 insect cells (baculovirus vector pAcG1), co-expressed with PDK1
As to the kind of experiment: Biochemical ΔPH Akt1 assay (flashplate, 33P incorporation into histone 2B). The following applies: 100 nM ATP, histone 2B substrate; read-out: ΔPHAkt1 inhibition: IC50. The essentials: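 The enzyme was GST-fused human Akt1 lacking the PH domain (aa 107–480), co-expressed with PDK1 in Sf9 cells, at 100 ng/well, with 100 ng/well histone 2B substrate and 100 nM ATP including 33P-ATP. 33P incorporation was counted on scintillant-coated flashplates.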

Data set [2] relates to MCF7 cells. As to the kind of experiment: Cellular proliferation/cytotoxicity assay (Alamar Blue), MCF7. To be noted: Homo sapiens, MCF7, 48 h, read-out: Anti-proliferative/cytotoxic activity: IC50 MCF7. (Resazurin is reduced to fluorescent resorufin, in cell work by metabolically active cells.)
Protocol: (§1) The anti-proliferative activity of the compounds as described herein, is evaluated using MCF7 and MDA-MB-468 (ATCC HTB-22 and HTB-132) cell lines and the Alamar Blue (Resazurin) cell viability assay (O'Brien et al. Eur J Biochem 267, 5421-5426, 2000). Resazurin is reduced to the fluorescent resorufin by cellular dehydrogenase activity, correlating with viable, proliferating cells. Test compounds are dissolved as 10 mM solutions in DMSO and subsequently diluted. MCF7 or MDA-MB-434 cells were seeded into 96 well flat bottom plates at a density of 10000 cells/well (MCF7) or 5000 cells/well (MDA-MB-468) in a volume of 200 μl/well. 24 hours after seeding, 1 μl each of the compound dilutions are added into each well of the 96 well plates. Each compound dilution is tested as at least as duplicates. Wells containing untreated control cells were filled with 200 μl DMEM containing 0.5% v:v DMSO. The cells are then incubated with the substances for 48 hours at 37° C. in a humidified atmosphere containing 5% carbon dioxide. To determine cell viability, 20 μl of a Resazurin solution (Sigma; 90 mg/l) are added. After 4 hours incubation at 37° C. the fluorescence is measured at an extinction of 544 nm and an emission of 590 nm (Wallac Victor2; Perkin Elmer, USA). For the calculation of the cell viability the emission value from untreated cells is set as 100% viability and the emission rates of treated cells are set in relation to the values of untreated cells. Viabilities are expressed as % values. The corresponding IC50 values of the compounds for cytotoxic activity are determined from the concentration-effect curves by means of non-linear regression. The analysis of the data is performed using a biostatistical program (GraphPad Prism, USA).
Data set [3] concerns the target T2, PKA (Homo sapiens, UniProt P17612).
T2 construct: His; purchased PanVera, USA #R3791; host or cells: E. coli
As to the kind of experiment: Biochemical PKA assay (flashplate). To be noted: 100 nM ATP; read-out: PKA inhibition: −log IC50 (converted). The method, then:
For the biochemical PKA assay the catalytic subunit of PKA is expressed in E. coli as a His-tagged human recombinant protein and purified accordingly (PanVera, USA; #R3791).
In order to study the kinase inhibition activity of the compounds according to the invention, a flashplate-based assay has been developed for the serine/threonine kinase, PKA. The assay is run in 96 well plates by incubating 1 ng/well His-PKA (PanVera, USA; #R3791), 0.5 μM/well PKA peptide (#12-394; Upstate, USA) as substrate, 10 μl of compound of invention (test compounds were dissolved as 10 mM solutions in dimethylsulfoxide (DMSO) and subsequently diluted) and 100 nM ATP (including ^33P-ATP) in 100 μl of reaction buffer ([…], pH7,5; 3 mM MgCl2; 3 mM MnCl2; 3 μM Na-Orthovanadat; 1 mM DTT) for 80 minutes at 22° C. The reactions are stopped by adding 100 μl stopping buffer (2% H3PO4 for 5 minutes) and are washed 3 times by using washing buffer (200 μl 1×PBS). Relying on the incorporation of ^33P into the peptide substrate, the detection is based on the adhesion of the phosphorylated peptide to the surface of scintillator-coated Flash plates (Perkin Elmer, USA; #SMP-103). This phosphorylation is measured by counting the plate for 60 sec. using a plate reader (Wallac Microbeta; Perkin Elmer, USA). By using this method the IC50 of the PKA inhibition is determined.

Data set [4] addresses T3, full-length Akt1 (inactive) (Homo sapiens, UniProt P31749).
T3 construct: recombinant full-length human Akt1 a containing N-terminal His6 tag; His6 (N); purchased Upstate, UK #14-279; host or cells: baculovirus infected Sf21 insect cells
Briefly: Biochemical Akt1 assay (full-length Akt1 inactive, PDK1-dependent activation, IMAP). To be noted: PDK1 and PIP3 vesicles, 50 μM ATP; read-out: Inhibition of Akt1 activation (full-length Akt1, inactive): IC50. The procedure:
The enzyme is purified using Ni2+/NTA-agarose (Upstate, UK; #14-279).
The enzyme is purified using Ni2+/NTA-agarose.
PDK1-dependent activation and subsequent enzymatic activity of Akt1: Activity of purified human Akt1 is routinely measured in an assay in which the enzyme is first activated by PDK1 in the presence of phosphatidylinositol-3,4,5-triphosphate (PIP3). Once activated, Akt1-dependent phosphorylation of a fluorescence labelled peptide substrate is measured by fluorescence polarisation using the IMAP technology (Molecular Devices).
The phospholipids are prepared as follows: 5 mg DOPC/DOPS are solved in 200 μl 10 mM Tris (pH 7.4) and 300 μg PIP3 are resuspended in 950 μl 10 mM Tris (pH 7.4) by pipetting. 950 μl solved PIP3 are mixed with 50 μl solved DOPC/DOPS and incubated for 2 h at a temperature below 20° C. Then the mixture is subjected to sonification for 30 min. at max. power until a translucent phopholipid vesicle preparation is obtained. Aliquots of the vesicle suspension are frozen at -80° C. until needed, likewise the solved DOPC/DOPS.
Assays are performed in 384-well plates. Incubations are carried out for 60 min. at room temperature. The reaction buffer mixture contained in a final volume of 25 μl: 10 mM Tris pH 7,4, 10 mM MgCl2. 1 mM DTT, and 0.1 mg/ml BSA. In contrast the activation buffer contained: 50 ng/well Akt1, 20 ng/well PDK1, 1.25 μM peptide substrat, 50 μM ATP, and phospholipid vesicles (1:20). Test compounds are added from stock solutions in DMSO before activation of Akt1 by PDK1. After the incubation the beads (IMAP binding reagent; Molecular Devices; 1:167) are added and the fluorescence polarization is measured (excitation 485 nm, emission 530 nm).

The test system of data set [5] is MDA-MB-468 cells. As to the kind of experiment: Cellular proliferation/cytotoxicity assay (Alamar Blue), MDA-MB-468. To be noted: Homo sapiens, MDA-MB-468, 48 h, read-out: Anti-proliferative/cytotoxic activity: IC50 MDA468.
Data set [6] concerns the target T4, full-length Akt1 (active) (Homo sapiens, UniProt P31749).
T4 construct: recombinant full-length human Akt1, containing N-terminal His6 tag; His6 (N); GST (N); purchased Upstate, UK #14-276; host or cells: baculovirus infected Sf21 insect cells
As to the kind of experiment: Biochemical Akt1 assay (full-length Akt1 active, flashplate, Crosstide). The following applies: 100 nM ATP, Crosstide substrate; read-out: Akt1 inhibition (full-length Akt1, active): IC50. The text has this:
For the biochemical Akt1 assay recombinant full-length human Akt1, containing N-terminal His6 tag is cloned and expressed in baculovirus infected Sf21 insect cells. Akt1 is activated with GST-MAPKAP-K2 and PDK1, and repurified on Ni2+/NTA-agrose and glutathioneagarose (Upstate, UK; #14-276).
In order to study the inhibition of Akt1 (full-length version) according to the invention, a flashplate-based assay has been developed.
The full-length Akt1 assay is a biochemical assay using Akt1 N-terminally fused to GST and co-expressed with PDKI in insect cells. The Akt1 assay is run in 96 well plates by incubating 500 ng/well GST-Akt1, 1 μM Crosstide (N-terminally biotinylated synthetic peptide (KGSGSGRPRTSSFAEG) Upstate, #12-385) as substrate, 10 μl of test compound (test compounds were dissolved as 10 mM solutions in dimethylsulfoxide (DMSO) and subsequently diluted) and 100 nM ATP (including ^33P-ATP) in 100 μl of reaction buffer (50 mM HEPES, pH7,5; 3 mM MgCl2; 3 mM MnCl2; 3 μM Na-Orthovanadat; 1 mM DTT; 1 μg/ml PEG8000) for 60 minutes at 30° C. in 96 well microtiter plates. The reactions are terminated by adding 100 μl stopping buffer (5M NaCl, 35 mM EDTA pH 8.0) for 5 minutes. 190μl of the reaction mixture are transferred into streptavidin-coated Flashplates (Perkin Elmer, #SMP-103) and incubated for further 30 minutes at room temperature. The plates are washed 3 times by using washing buffer (0.9% NaCl). Relying on the incorporation of ^33P into the peptide substrate crosstide, the detection is based on the specific binding of the biotinylated peptide to the streptavidin-coated surface of scintillator-coated flash plates (NEN, USA; #SMP-103). This phosphorylation is measured by counting the plate for 60 sec. using a plate reader (Wallac Microbeta; Perkin Elmer, USA).

For data set [7], the system named is MCF7 cells.
Protocol: as §1
Data set [8] deals with MDA-MB-468 cells.

The record followed here is patent US7745446B2, “Pyrazolo[1,5-c]pyrimidines” (Bayer Schering Pharma Aktiengesellschaft, priority 2004, dated 2010).

Like-named read-outs stand apart in the source and are kept apart here.

T1 sequence (P31749 107-480, stated change not applied): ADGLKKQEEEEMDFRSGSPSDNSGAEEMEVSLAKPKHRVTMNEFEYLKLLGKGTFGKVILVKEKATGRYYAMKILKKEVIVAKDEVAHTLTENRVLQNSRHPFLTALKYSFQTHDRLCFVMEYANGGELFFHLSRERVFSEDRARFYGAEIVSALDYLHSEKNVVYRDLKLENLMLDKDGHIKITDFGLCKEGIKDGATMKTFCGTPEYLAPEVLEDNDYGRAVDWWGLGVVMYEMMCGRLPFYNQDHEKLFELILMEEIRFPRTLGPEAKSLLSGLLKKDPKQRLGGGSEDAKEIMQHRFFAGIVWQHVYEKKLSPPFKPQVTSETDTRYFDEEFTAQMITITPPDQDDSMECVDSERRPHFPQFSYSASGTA
T3 sequence (P31749 whole entry): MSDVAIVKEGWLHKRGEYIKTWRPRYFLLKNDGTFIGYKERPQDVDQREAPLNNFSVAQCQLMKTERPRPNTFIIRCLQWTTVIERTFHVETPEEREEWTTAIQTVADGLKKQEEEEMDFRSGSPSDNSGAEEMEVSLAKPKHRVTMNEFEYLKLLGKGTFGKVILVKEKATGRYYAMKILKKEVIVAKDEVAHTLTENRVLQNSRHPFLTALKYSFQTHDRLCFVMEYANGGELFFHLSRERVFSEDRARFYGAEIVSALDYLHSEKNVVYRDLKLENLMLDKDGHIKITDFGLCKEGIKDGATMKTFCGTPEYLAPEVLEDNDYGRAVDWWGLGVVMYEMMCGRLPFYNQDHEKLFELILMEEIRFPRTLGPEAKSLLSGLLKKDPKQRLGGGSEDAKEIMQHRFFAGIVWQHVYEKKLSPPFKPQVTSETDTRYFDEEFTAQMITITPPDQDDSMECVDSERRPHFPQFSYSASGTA
T4 sequence (P31749 whole entry): as above

Regarding `Cn1cc(-c2ccc(-c3cc4ccnn4c(Nc4ccc(NC(=O)c5ccc(CN)cc5)cc4)n3)cc2)cn1` [Example 61, 4-Aminomethyl-N-(4-{5-[4-(1-methyl-1H-pyrazol-4-yl)-phenyl]-pyrazolo[1,5-c]pyrimidin-7-ylamino}-phenyl)-benzamide], the IC50 in data set [1] was no more than 1.75 µM; in data set [2] it was no more than 16.9 µM; in data set [3], 6.31 to 100 µM; in data set [4], no more than 5 µM; in data set [5] it was no more than 13.6 µM; in data set [6], no more than 4.03 µM.
As for `NCc1ccc(C(=O)Nc2ccc(Nc3nc(-c4cccc5c4oc4ccccc45)cc4ccnn34)cc2)nc1` [Example 65, 5-Aminomethyl-pyridine-2-carboxylic acid [4-(5-dibenzofuran-4-yl-pyrazolo[1,5-c]pyrimidin-7-ylamino)-phenyl]-amide], the IC50 in data set [1] is no more than 1.75 µM; in data set [2], no more than 16.9 µM; in data set [3], 6.31 to 100 µM; in data set [5] it was no more than 13.6 µM.
Turning to `NCc1ccc(C(=O)Nc2ccc(Nc3nc(-c4ccc(-c5ccc(F)cc5)cc4)cc4ccnn34)cc2)cc1` [Example 67, 4-Aminomethyl-N-{4-[5-(4′-fluoro-biphenyl-4-yl)-pyrazolo[1,5-c]pyrimidin-7-ylamino]-phenyl}-benzamide], the IC50 is no more than 1.75 µM in data set [1], no more than 16.9 µM in data set [2], 6.31 to 100 µM in data set [3] and no more than 13.6 µM in data set [5].
For `NCc1ccc(C(=O)Nc2ccc(Nc3nc(-c4ccc(I)cc4)cc4ccnn34)cc2)cc1` [Example 68, 4-Aminomethyl-N-{4-[5-(4-iodo-phenyl)-pyrazolo[1,5-c]pyrimidin-7-ylamino]-phenyl}-benzamide] the same measures were no more than 1.75 µM, no more than 16.9 µM, 6.31 to 100 µM and no more than 13.6 µM.
For `NCc1ccc(C(=O)Nc2ccc(Nc3nc(-c4ccc(-c5ccccc5F)cc4)cc4ccnn34)cc2)cc1` [Example 69, 4-Aminomethyl-N-{4-[5-(2′-fluoro-biphenyl-4-yl)-pyrazolo[1,5-c]pyrimidin-7-ylamino]-phenyl}-benzamide] the same measures were no more than 1.75 µM, no more than 16.9 µM, 6.31 to 100 µM and no more than 13.6 µM.
For `NCc1ccc(C(=O)Nc2ccc(Nc3nc(-c4ccc(-c5cccc(F)c5)cc4)cc4ccnn34)cc2)cc1` [Example 70, 4-Aminomethyl-N-{4-[5-(3′-fluoro-biphenyl-4-yl)-pyrazolo[1,5-c]pyrimidin-7-ylamino]-phenyl}-benzamide] the same measures were no more than 1.75 µM, no more than 16.9 µM, 6.31 to 100 µM and no more than 13.6 µM.
“Aminomethyl-N-(4-{5-[6-(2-hydroxy-ethoxy)-naphthalen-2-yl]-pyrazolo[1,5-c]pyrimidin-7-ylamino}-phenyl)-benzamide [Example 50]”: the IC50 is no more than 16.9 µM in data set [7] and no more than 13.6 µM in data set [8].
